Source: patent US5919761A, “Peptides for heparin and low molecular weight heparin anticoagulation reversal” (The Board of Regents of the University of Michigan, priority 1995, dated 1999)
Peptide text beside a SMILES is read from it.

How the values were obtained:
[1] = Platelet and white cell counts after standard heparin reversal, canine study; assay type: in vivo; conditions: dogs, 3 minutes post-reversal, resolved by about 30 minutes
Description: (§1) Anticoagulation reversal was assessed by a number of standard coagulation tests performed upon samples of venous blood: activated clotting time (ACT), prothrombin time (PT), activated partial thromboplastin time (aPTT), thrombin clotting time (TCT), heparin concentration by assay for FXa inhibitory activity (FXa), white cell count (WBC), and platelet counts (PLT). Measurements were made 3 minutes prior to heparin reversal (baseline) and 3 minutes and 30 minutes post-administration of the heparin reversal agent. The "Heparin" row sets forth the observed reversal as a consequence of expected heparin metabolism or degradation alone.

[2] = Hemodynamic studies and total toxicity score after standard heparin reversal, canine study; conditions: dogs; for ΔMAP: average maximum decline in first five minutes after peptide administration; for average total toxicity score (TTS±SD): first 5 minutes after reversal, more negative = more toxic; for ΔCO / ΔVO2: maximum percent change
Description: As used hereinafter, the peptides will be identified by their total cationic charge value, e.g., [+8], [+16], etc.
Hemodynamic studies were conducted by measuring mean arterial pressure (MAP), heart rate (HR), and maximum percent changes in cardiac output (CO) and systemic oxygen consumption (VO2).
Total toxicity scores (TTS) were developed that reflected maximum declines in each of four parameters (MAP, CO, VO2 and HR) over the first 5 minutes after reversal, the latter being the time of expected greatest adverse hemodynamic effect. The maximum changes occurring in an individual dog over the first 5 minutes were divided by the standard deviation derived from the entire group of tested animals and the four scores were added, resulting in a TTS for each individual dog. The TTS values for each dog were then summed to obtain an average TTS and SD for each peptide studied.

[3] = Platelet count, leukocyte count and bleeding time after LMWH reversal at different rates, canine study; assay type: in vivo, dogs; conditions: dogs, Logiparin; administered over 10 sec
Description: The anticoagulation-reversing agents were administered rapidly over 10 seconds to maximize hemodynamic effects or more slowly over a 3 minute interval. Changes in LMWH anticoagulation occurring from metabolism alone were determined in a separate group of dogs not given any reversal agent.

[4] = system: standard, unfractionated heparin; assay: Percent reversal of standard heparin anticoagulation by variant peptides and protamine, in vivo canine study, coagulation tests; design: species or system dogs; conditions: for Percent reversal of heparin anticoagulation, ACT: heparin 150 IU/kg IV, agent 1.5 mg/kg IV over 10 seconds
Description: Data are expressed as a mean ±1 SD. Statistical analysis using linear regression for determination of correlation coefficients, and analysis of variance (ANOVA) or unpaired two-way Student's t-test; p<0.05 was accepted as statistically significant.
as §1

In the case of NCCCC[C@H](NC(=O)[C@H](CCCCN)NC(=O)[C@H](CCCCN)NC(=O)[C@H](CCCCN)NC(=O)CNC(=O)CNC(=O)[C@H](CCCCN)NC(=O)[C@H](CCCCN)NC(=O)[C@H](CCCCN)NC(=O)[C@H](CCCCN)NC(=O)CNC(=O)CNC(=O)[C@H](CCCCN)NC(=O)[C@H](CCCCN)NC(=O)[C@H](CCCCN)NC(=O)[C@H](CCCCN)NC(=O)CNC(=O)CNC(=O)[C@H](CCCCN)NC(=O)[C@H](CCCCN)NC(=O)[C@H](CCCCN)NC(=O)[C@H](CCCCN)NC(=O)CNC(=O)CNC(=O)[C@H](CCCCN)NC(=O)[C@H](CCCCN)NC(=O)[C@H](CCCCN)NC(=O)[C@H](CCCCN)NC(=O)[C@@H]1CCCN1)C(=O)O [[+20], P(K4 G2)4 K4] (H-PKKKKGGKKKKGGKKKKGGKKKKGGKKKK-OH), the platelet counts [1] is reported as “thrombocytopenia”, the ΔHR [2] is reported as -38 and the ΔMAP [2] is reported as -31. The “average total toxicity score (TTS±SD)” value [2] was -6.1±3.5, the ΔCO [2] was -40% and the ΔVO2 [2] was -31%.

In the case of PK4 S3 KPVK6 PKVSK6 G2 K4 [[+21]], the Maximal thrombocytopenia [3] is reported as -43%, the platelet counts [1] is reported as “thrombocytopenia” and the ΔHR [2] is reported as -21. For the same compound, the ΔMAP [2] was -35, the “average total toxicity score (TTS±SD)” value [2] was -6.9±3.8 and the ΔCO [2] was -44%. For the same compound, the ΔVO2 [2] was -38%, the “in vivo heparin reversal (summary)” value ([4]; dogs, standard heparin) was “nearly complete reversal” and the “Percent reversal of heparin anticoagulation, ACT” value ([4]; dogs, 3 min post-administration) was 81%. For the same compound, the “Percent reversal of heparin anticoagulation, ACT” value ([4]; dogs, 30 min) was 85%, the “Percent reversal of heparin anticoagulation, APTT” value ([4]; same study, 3 min) was 88% and the “Percent reversal of heparin anticoagulation, FNa” value ([4]; same study, 3 min) was 59%. The “Percent reversal of heparin anticoagulation, FXa” value ([4]; same study, 3 min) was 55%, the “Percent reversal of heparin anticoagulation, PT” value ([4]; same study, 3 min) was 97% and the “Percent reversal of heparin anticoagulation, TCT” value ([4]; same study, 3 min) was 91%. For the same compound, the “Percent reversal of heparin anticoagulation, APTT” value ([4]; same study, 30 min) was 85%, the “Percent reversal of heparin anticoagulation, FXa” value ([4]; same study, 30 min) was 49% and the “Percent reversal of heparin anticoagulation, PT” value ([4]; same study, 30 min) was 93%. The “Percent reversal of heparin anticoagulation, TCT” value ([4]; same study, 30 min) was 79%.
